Source: patent US12383499B2, “Scale up synthesis of silicasome nanocarriers” (The Regents of the University of California, priority 2018, dated 2025)
Counter-ions that a name gives are not always drawn.

Experiments:
orthotopic MC38 tumor = test: Efficacy and survival in the orthotopic MC38 tumor chunk colon cancer model; assay type: in vivo, C57BL/6 mice
[1] = Toxicity study (bone marrow, GI tract, liver, body weight); assay type: in vivo, C57BL/6 mice; details: 24 h after 4 IV injections of 40 mg/kg irinotecan
Description: Irinotecan exerts major systemic toxicological effects (e.g., neutropenia and diarrhea) when used as a free drug monotherapy or in combination with 5-FU (i.e., FOLFIRI regimen) in CRC (Cunningham et al. (1998) The Lancet, 352, 1413-1418; Rougier et al. (1998) The Lancet, 352: 1407-1412; Saltz et al. (2000) N. Engl. J Med. 343: 905-914). This constitutes one of the principal reasons for considering encapsulated irinotecan delivery. […] The possibility of acute myelosuppression effects was assessed by the collection of whole blood 24 h after the last IV injection, as well as looking at bone marrow cellularity (Id.). […] The visual appearance was confirmed by computer software that semi-quantitatively scored the total marrow cellularity and hematopoietic nuclei in the histology images (FIG. 13, panel A) (Travlos (2006) Toxicol. Pathol. 34: 548-565). […]
To compare the toxicity of different irinotecan formulations, a toxicity study was performed in healthy female C57BL/6 mice using a published protocol (Iusuf et al. (2014) Mol. Cancer Ther. 13: 492-503). […] H&E staining to assess bone marrow and hematopoietic cellularity in the sternum was analyzed by Aperio ImageScope software (Travlos (2006) Toxicol. Pathol. 34: 548-565).

[2] = tested on: orthotopic KPC-derived PDAC tumor; test: Efficacy and survival in the orthotopic KPC-derived PDAC model; assay type: in vivo, B6/129SF1/J mice; details: 40 mg/kg twice per week, three IV administrations, n=3
KPC cells = test: MTS cytotoxicity assay, KPC cells; assay type: cell-based, murine; details: KPC pancreatic cancer cells
Experimental: (§1) The cytotoxicity of purified MSNPs was assessed in a standard MTS assay (CellTiter 96® AQueous One Solution Cell Proliferation Assay, Promega). KPC or MC38 cells were plated at a density of 5×10^3 cells per well in a 96-well plate and cultured for 24 hr. The medium was replaced with fresh medium containing the different NPs at the indicated concentrations. Non-treated cells were used as control. After a 48 hr treatment, the medium was replaced with 100 μL fresh medium containing MTS solution (5:1, v/v medium/CellTiter 96® Aqueous stock solution) for further culture at 37° C. for 1 hr. The absorbance of the culture wells at 490 nm was directly recorded by a microplate reader (M5e, Molecular Device, USA). Wells without cells but contained the same MTS solution were used as blank. The relative cell viability (%) is [(the absorption of treated well−blank)/(the absorption of control well−blank)]×100.

MC38 cells = test: MTS cytotoxicity assay, MC38 cells; assay type: cell-based, murine; details: MC38 colon cancer cells
Experimental: as §1

non-metastatic PDAC = details: cited from earlier work

Structure (SMILES)	tumor growth by IVIS bioluminescence imaging (orthotopic MC38 tumor; 40 mg/kg irinotecan equivalent IV twice per week, up to day 21, n=6)	survival (Kaplan-Meier, Log-rank) (orthotopic MC38 tumor; 40 mg/kg irinotecan equivalent IV twice per week, up to six administrations, n=6)	rate of apoptosis (cleaved caspase-3 IHC) in orthotopic tumors (orthotopic MC38 tumor; 24 h after the 4th IV injection, 40 mg/kg, n=3)	bone marrow cellularity / myelosuppressive effects (sternum H&E) [1]	neutrophil count / neutropenia (differential WBC counts) [1]	primary tumor growth and metastasis (IVIS imaging) [2]	in vitro killing effect (MTS) (KPC cells)	in vitro killing effect (MTS) (MC38 cells)	disease-free survival (non-metastatic PDAC)
CCc1c2c(nc3ccc(OC(=O)N4CCC(N5CCCCC5)CC4)cc13)-c1cc3c(c(=O)n1C2)COC(=O)[C@]3(O)CC [free irinotecan, Irinotecan hydrochloride trihydrate]	no significant tumor growth inhibition	no significant survival benefit	~2.5%	significant myelosuppressive effects	significant degree of neutropenia	inefficient tumor inhibition	most robust killing effect	most robust killing effect	–
Nc1ccn([C@@H]2O[C@H](CO)[C@@H](O)C2(F)F)c(=O)n1 [gemcitabine]	–	–	–	–	–	–	–	–	12.8 months
